In ChEMBL document CHEMBL3507680, “University of Dundee, Gates Library screen for HepG2 cell viability” one finds cytotoxicity data, which are given here for 100 molecules.

The series is described as follows: Human HepG2 cell viability assay in 384 well format. Set-up: dose 125 nL, time 70.5 hour; cytotoxicity at 70.5 h: concentration not given beside the values. The conditions noted are these: HepG2 cells, read-out: Inhibition. It is filed as toxicity, cell-based.
In the case of `Cc1ccsc1CN1CCC(c2nnc(Cn3cccn3)n2C)CC1`, the cytotoxicity at 70.5 h is -2.95%.
The figure for `Cc1nsc(NC2CCOC3(CCCC3)C2)n1` (stereo not given) is -1.21%; for `Cc1ccccc1CN1CCN(CC(=O)Nc2cccnc2)CC1` it is 5.17%.
As for `CC(C)(C)c1cc(C(=O)N2CCC(c3cnccn3)CC2)[nH]n1`, the cytotoxicity at 70.5 h was -5.82%.
Then `CNC(=O)CCNC(=O)c1cccc(Cn2nc(C)cc2C)c1`, with -3.48%; and `CC(C)c1cnc(CN2C(=O)CC3(CCSC3)C2=O)o1` (stereo not given), with -3.08%; and `CN(C)c1ccc(C(=O)N2CCC(c3n[nH]c(C4CC4)n3)CC2)cc1`, with -6.1%.
For `Clc1cc(CN2CCCC(Cn3cncn3)C2)c2ncccc2c1` (stereo not given), the cytotoxicity at 70.5 h is -12.2%.
Take `Cc1csc(CN2CC[C@H]3C[C@H](C)O[C@@H]3C2)n1`: the cytotoxicity at 70.5 h was -10.4%.
On to `CCN(CC)S(=O)(=O)c1ccc(CNC(=O)N2CCC(C#N)CC2)cc1`, for which the cytotoxicity at 70.5 h was -6.61%.
The figure for `CSc1cc2c(cc1NC(=O)N(C)Cc1cnn(C)c1)OCCO2` is 2.84%.
With `O=C(NC1CC1)[C@@H]1CCO[C@@H]2CCN(C3CCOCC3)C[C@H]21`, the cytotoxicity at 70.5 h was -4.77%.
For `c1cnnc(N2CCCC(NCc3cccc4c3OCCCO4)C2)c1` (stereo not given), the cytotoxicity at 70.5 h worked out at 0.746%.
Then `Cc1ncsc1C(=O)NCCNC(=O)Cc1cccc(F)c1`, with -6.49%; and `Cc1ccc(C(C)N(C)CCS(=O)(=O)CCC(N)=O)cc1` (stereo not given), with -6.4%.
The figure for `CC1=CCN(C(=O)Nc2ccccc2N2CCOC2=O)CC1` is 0.848%; for `c1cnc(N2CC3(CCN(Cc4ccncc4)C3)C2)nc1` it is -6.13%.
For `CN(C)Cc1ccnc(C2CN(CCc3ccccc3)CCO2)n1` (stereo not given), the cytotoxicity at 70.5 h is 17.9%.
As to `CC(=O)N1CCN(c2cncc(C3CCNCC3)n2)CC1`, the cytotoxicity at 70.5 h amounted to 34.1%.
Turning to `COCCOc1ccc(C(=O)N2CCCC(n3cncn3)C2)cn1` (stereo not given), the cytotoxicity at 70.5 h worked out at 10.1%.
For `O=C(c1ccnnc1)N1C[C@H]2CN(Cc3cccc(F)c3)C(=O)[C@H]2C1`, the cytotoxicity at 70.5 h is -13.7%.
Regarding `CO[C@@H]1CO[C@@]2(CCCN(Cc3nc(C)cs3)C2)C1`, the cytotoxicity at 70.5 h was -1.7%.
`O=C(NC1CC1)c1cc2c(nc1O)CC(c1cccs1)CC2=O` (stereo not given): the cytotoxicity at 70.5 h was -11.9%.
In the case of `CC(C)C1CN(Cc2nccn2C)CCC(=O)N1CC1CC1` (stereo not given), the cytotoxicity at 70.5 h is -2.87%.
The figure for `CCn1cc(CN(C)C(=O)c2cc(C(F)(F)F)n(C)n2)cn1` is -7.42%; for `CC(C)n1cnnc1CN(C)Cc1ccc(CO)o1` it is -22.8%.
For the molecule `CN(C)C(C(=O)N1CCC(CCO)CC1)c1ccccc1F` (stereo not given), the cytotoxicity at 70.5 h was found to be 8.83%.
For the molecule `O=C(NCC(F)(F)F)c1ccncc1`, the cytotoxicity at 70.5 h amounted to 12.7%.
Regarding `CN(CC1CCN(c2ccccc2)C1)c1ccc(Cn2ccnc2)cn1` (stereo not given), the cytotoxicity at 70.5 h was -13.6%.
Then `Cc1cccc(N(CCC(N)=O)CC(=O)Nc2ccccc2)c1`, with 0.933%; and `CC(O)CN(Cc1cccc(C(N)=O)c1)c1ccccc1` (stereo not given), with -7.27%; and `CCCn1ncc(CN(Cc2cccnc2)Cc2cccs2)c1C`, with 21.4%.
The figure for `Cc1cc(=O)c(C(=O)N2CCN(C)c3ccccc3C2)c[nH]1` is -9.5%.
The figure for `COCCN1C(=O)CCC12CCCN(Cc1ccccc1F)C2` (stereo not given) is 31.9%; for `CC(C)(C)c1cn2nc(N3CCC[C@@H]3CO)sc2n1` it is -17.4%; for `CN(CCO)Cc1nnc(C2CCN(C(=O)c3ccccc3)CC2)n1C` it is 0.129%.
For the molecule `CCCC(=O)N(C)c1cccc2ncccc12`, the cytotoxicity at 70.5 h is -1.87%.
For `COc1ccccc1OC1(C(=O)O)CCN(c2nc(C)cnc2C)CC1`, the cytotoxicity at 70.5 h was -6.64%.
The figure for `CC(C)(C)N1CC(C(=O)N2CCN(CCc3ccccc3)CC2)CC1=O` (stereo not given) is -12.8%; for `O=S(=O)(c1ccccc1Br)N1CCC2(CC1)OCCS2` it is -2.19%.
For `O=C(c1ccoc1)N1CCC(Nc2cccnn2)CC1`, the cytotoxicity at 70.5 h was -8.84%.
With `CS(=O)(=O)Cc1ccccc1NCc1cc(Cl)ccc1Cl`, the cytotoxicity at 70.5 h is 3.86%.
The figure for `Cc1ccc(C(=O)N2CCC(=O)N(CC3CC3)C(C(C)C)C2)c(=O)[nH]1` (stereo not given) is 4.74%; for `COc1cc(C#N)ccc1OCC(=O)NS(=O)(=O)c1ccccc1` it is -7.96%; for `N#Cc1ccc(F)c(CN2CCc3sccc3C2)c1` it is -5.04%.
Then `COCCCN1CCCN(C(C)C(=O)Nc2ccnn2C(C)C)CC1` (stereo not given), with -4%; and `COc1cccc(Cn2c(C3CCNCC3)cc3cccnc32)c1`, with -1.55%; and `CCN(C)S(=O)(=O)N[C@H]1CN(c2ccc(F)cn2)C[C@@H]1C(C)C`, with -1.25%.
Consider `CC(C)CCN1C(=O)CC(N(C)Cc2nc3ccccc3c(=O)[nH]2)C1=O` (stereo not given), for which the cytotoxicity at 70.5 h is -6.43%.
On to `CCn1ccnc1CN1CCCN(C(=O)c2ccnc(C)n2)CC1`, for which the cytotoxicity at 70.5 h came out at 14.4%.
In the case of `CS(=O)(=O)CCCN(CCc1cccc(F)c1)C1CC1`, the cytotoxicity at 70.5 h is 21.4%.
Then `CCc1nc(C)c(CC(=O)N2CCC3(CC2)OCCCC3O)c(=O)[nH]1` (stereo not given), with -6.44%; and `CCS(=O)(=O)c1ccccc1N1CCC(N)CC1`, with -3.9%; and `CCOCCN1CCc2cncnc2C1`, with 27.9%.
Consider `c1ccc2oc(CCCN3CCCC(Cn4cncn4)C3)nc2c1` (stereo not given), for which the cytotoxicity at 70.5 h came to 19.8%.
The figure for `COc1cc2c(cc1OC)C(=O)C(Sc1nnc(C)o1)C2` (stereo not given) is -15.9%; for `CCCc1n[nH]c(C2CN(Cc3nnc(C4CC4)o3)CCO2)n1` (stereo not given) it is 8.7%.
For the molecule `CCc1nc(NS(=O)(=O)c2cc(C)ccc2F)no1`, the cytotoxicity at 70.5 h is -8.12%.
As for `CC(C)OCCSCCn1nc2ccccn2c1=O`, the cytotoxicity at 70.5 h was -12.9%.
Turning to `Cc1noc([C@]23COC[C@H]2CN(C(=O)CN(C)C)C3)n1`, the cytotoxicity at 70.5 h is -4.74%.
For the molecule `CC(O)CNCc1c(C(C)C)nn(C)c1N1CCOCC1` (stereo not given), the cytotoxicity at 70.5 h was -0.301%.
The figure for `CCSCCC(=O)N1CCc2[nH]nc(COc3ccccc3)c2C1` is 23.8%; for `COCCN(C)C(=O)Nc1cc2c(cc1SC)OCCO2` it is 10.9%; for `Cc1nc(S(=O)(=O)NCCC(=O)NCc2ccsc2)cn1C` it is -6.68%.
The figure for `Cc1cc(C(=O)N2CCN(c3nc4c(C(C)C)cccc4s3)CC2)on1` is 32%; for `CC(C)N(C)S(=O)(=O)c1ccc2c(c1)CCN(C(=O)c1ccccn1)C2` it is 22.8%; for `COc1nn(C)cc1C(=O)NCC(=O)NCc1cccnc1` it is -2.92%.
Regarding `Cc1cccc(CN2CCC(N(C)Cc3nnc(C4CC4)n3C)C2)c1` (stereo not given), the cytotoxicity at 70.5 h was -1.59%.
The figure for `CCCN1CCN(C(=O)c2cccnc2-n2cncn2)CC1` is -2.43%.
In the case of `O=C(O)[C@@H]1CN(C(=O)c2ccc3[nH]nnc3c2)C[C@H]1c1ccccc1`, the cytotoxicity at 70.5 h is -4.96%.
As to `COc1c(C2CCCN2C(=O)c2cnccn2)c(C)nn1C` (stereo not given), the cytotoxicity at 70.5 h came to 20.2%.
Turning to `CCCn1c(C)c(CC(=O)N(C)CCO)c2c1CC(C)(C)CC2=O`, the cytotoxicity at 70.5 h was 26.2%.
Turning to `CC1(C)CC(N2Cc3nc(N4CCOCC4)ncc3C2=O)CC(C)(C)N1`, the cytotoxicity at 70.5 h turned out to be 13.3%.
`CCC1CN(C(=O)c2ccc(O)c(C)c2)CCN1C(C)C` (stereo not given): the cytotoxicity at 70.5 h is -5.22%.
On to `CC(C)N1CCC2(CC1)CC(=O)N(Cc1cc(F)cc(F)c1)C2`, for which the cytotoxicity at 70.5 h is -2.98%.
As to `CCn1ccnc1C1CCCN(C(=O)c2sc(C)nc2C)C1` (stereo not given), the cytotoxicity at 70.5 h is -7.2%.
For the molecule `CCc1ccc(NC(=O)c2n[nH]c(-n3cnnc3)n2)cc1`, the cytotoxicity at 70.5 h is -6.66%.
With `COCCC(=O)N1CC[C@H]2O[C@@H](C)C[C@H]2C1`, the cytotoxicity at 70.5 h was -7.16%.
Then `N#CCCN(C(=O)CN1CCCC1c1ccsc1)c1ccccc1F` (stereo not given), with -14%.
As to `CO[C@H]1CN(Cc2ccccc2F)[C@@H]2CCCO[C@H]12`, the cytotoxicity at 70.5 h was -1.13%.
As for `O=C(c1ccc(NC2CC2)nc1)N1CCCC(n2ccnc2)C1` (stereo not given), the cytotoxicity at 70.5 h was -12.9%.
Then `CC(NC1(CNS(C)(=O)=O)CCOCC1)c1ccccc1` (stereo not given), with -8.35%; and `CN1CCN(c2ccccc2NC(=O)c2ccco2)CC1`, with -6.77%.
The figure for `COc1ccc(CN2CCCC2Cn2nc(C)nc2C)cc1F` (stereo not given) is -18.3%; for `CNS(=O)(=O)CC(=O)NC(C)Cc1cccc(Cl)c1` (stereo not given) it is -2.05%.
The figure for `Cc1cc(C)n(CC2CN(CC3CCCC3)CCO2)n1` (stereo not given) is -3.55%; for `O=C(NCCNc1ccccn1)NC1CCOC2(CCCCC2)C1` (stereo not given) it is 3.54%; for `Cc1ccccc1CC(=O)N(C)C1CCN(c2ccccn2)CC1` it is 25.2%.
On to `Cc1nn(C)c2c(NCc3cccnc3)nc(C(C)C)nc12`, for which the cytotoxicity at 70.5 h was found to be 12.4%.
The figure for `NC(=O)C1(c2cnccn2)CCCN1Cc1ccccn1` (stereo not given) is -3.76%.
`CCOC(=O)N1CCN(c2nc(N3CCCC3)c3ccccc3n2)CC1`: the cytotoxicity at 70.5 h was -6.36%.
Then `COc1ccccc1CN(C)c1nccc(-c2cn(C)nc2C)n1`, with -8.86%; and `CCOc1ncccc1C(=O)N(C)Cc1ncc(C)c(OC)c1C`, with -2.95%; and `O=C1NCc2ccccc2CC12CCN(Cc1c(F)cccc1Cl)C2` (stereo not given), with -5.69%.
Then `CCCNCc1cn(C)nc1-c1cccnc1`, with -7.26%.
Then `COC(=O)CNC(=O)N1CCN(c2nc3ccccc3n2C)CC1`, with 26.4%.
`CC(C)CNC(=O)CNC(=O)NCC(O)c1ccc2ccccc2c1` (stereo not given): the cytotoxicity at 70.5 h was -3.3%.
`CN(C)[C@@H]1CCN(C(=O)c2ccsc2)[C@H]1Cc1cnn(C)c1`: the cytotoxicity at 70.5 h is -14.4%.
For `CC(=O)N(C)CC(=O)Nc1cnc(-n2ccnc2C)nc1`, the cytotoxicity at 70.5 h worked out at 27.9%.
Take `CC(C)N1CC[C@H]2[C@H](C[C@@H](Cn3cncn3)N2c2nccs2)C1`: the cytotoxicity at 70.5 h is -6.46%.
